# US8828985B2, “Carbamate and urea inhibitors of 11-beta-hydroxysteroid dehydrogenase 1” (Vitae Pharmaceuticals, Inc., priority 2008, dated 2014)
# Key:
# [1] = target: T1, purified recombinant 11β-HSD1 (Homo sapiens, UniProt P28845); assay: Biological Test Example 1: inhibition of purified 11β-HSD1, Scintillation Proximity Assay; type: biochemical; settings: purified recombinant 11β-HSD1 (expressed in E. coli), SPA; read-out: Biological Test Example 1 IC50 Range
# T1 construct: made in house; host or cells: E. coli
# Description: The inhibition of purified 11β-HSD1 by compounds of Formula I is measured using a Scintillation Proximity Assay. […] The reaction is then incubated for 90 minutes, and stopped by adding 50 μl of SPA bead mix (18-β-glycyrrhetinic acid, 10 μM final, 5 mg/ml protein A coated YSi SPA beads, and 1 ug/ml α-cortisol antibody (East Coast Biologics)). The plate is shaken for 120 minutes, and the radioactivity corresponding to ^3H cortisol is measured on a Wallac Microbeta.
# [2] = target: T2, human 11β-HSD1 (Homo sapiens, UniProt P28845); assay: biochemical; settings: Biological Test Example 2 IC50 Range, microsomes from CHO cells overexpressing human 11β-HSD1, SPA
# [3] = target: T2, human 11β-HSD1; settings: at 100 nm
# T1 sequence (P28845 whole entry, species assumed): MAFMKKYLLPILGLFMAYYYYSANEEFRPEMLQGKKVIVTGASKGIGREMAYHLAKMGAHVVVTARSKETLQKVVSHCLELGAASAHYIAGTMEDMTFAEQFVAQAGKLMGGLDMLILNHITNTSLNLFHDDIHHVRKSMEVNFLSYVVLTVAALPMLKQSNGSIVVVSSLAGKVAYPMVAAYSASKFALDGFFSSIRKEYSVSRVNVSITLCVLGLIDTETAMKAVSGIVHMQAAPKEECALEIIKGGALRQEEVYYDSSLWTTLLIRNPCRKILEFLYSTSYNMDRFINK
# T2 sequence (P28845 whole entry): as the sequence (P28845 whole entry, species assumed) above
IC50 [1] [µM],Structure (SMILES),IC50 [2] [µM],Biological Test Example 2 Average % inhibition at 100 nm [3] [%]
0.1 to 1,"CC(C)(C)OC(=O)NC1CCN(C(=O)NC2C3CC4CC(C3)CC2C4)CC1 (stereo not shown) [Example 53, tert-butyl 1-(2-adamantylcarbamoyl)piperidin-4-ylcarbamate]",,
< 0.1,"CC(C)(C)OC(=O)N1CCC2CN(C(=O)OC3C4CC5CC(C4)CC3C5)CC21 (racemic) [Example 11, (±)-1-tert-butyl 5-(2-adamantyl) hexahydropyrrolo[3,4-b]pyrrole-1,5-dicarboxylate]",,
,"CC(C)(C)OC(=O)NC1(Cc2ccccc2)CCN(C(=O)OC2C3CC4CC2CC(C(N)=O)(C4)C3)C1 (single isomer, unassigned) [Example 29 Isomer 2, (trans-1-carbamoyl-4-adamantyl) 3-benzyl-3-(tert-butoxycarbonylamino)pyrrolidine-1-carboxylate]",< 0.1,90.8
,"NC(=O)C12CC3CC(C1)C(OC(=O)N1CC[C@@H](Nc4ncccn4)C1)C(C3)C2 (single isomer, unassigned) [Example 62 Isomer 1]",< 0.1,40.8
,"CC(C)OC(=O)N[C@@H]1CCN(C(=O)OC2C3CC4CC2CC(C(N)=O)(C4)C3)C1 (single isomer, unassigned) [Example 24 Isomer 2]",< 0.1,87.4
,"CC(C)(C)OC(=O)NC1(Cc2ccccc2)CCN(C(=O)OC2C3CC4CC2CC(C(N)=O)(C4)C3)C1 (single isomer, unassigned) [Example 29 Isomer 2.1, (trans-1-carbamoyl-4-adamantyl) 3-benzyl-3-(tert-butoxycarbonylamino)pyrrolidine-1-carboxylate]",< 0.1,96.9
,"N#Cc1ccc(N[C@@H]2CCN(C(=O)OC3C4CC5CC3CC(C(=O)NC3CCCCC3)(C5)C4)C2)nc1 (single isomer, unassigned) [Example 117 Isomer 1]",> 0.1,17.85
,"CC(C)OC(=O)N[C@@H]1CCN(C(=O)OC2C3CC4CC2CC(C(N)=O)(C4)C3)C1 (single isomer, unassigned) [Example 24 Isomer 1]",> 0.1,2.0
,"CC(C)(C)OC(=O)N1CCCC12CCN(C(=O)OC1C3CC4CC1CC(C(N)=O)(C4)C3)C2 (single isomer, unassigned) [Example 30 Isomer 1, 1-tert-butyl 7-(cis-1-carbamoyl-4-adamantyl) 1,7-diazaspiro[4.4]nonane-1,7-dicarboxylate]",> 0.1,15.9
,"CNC(=O)C12CC3CC(C1)C(OC(=O)N1CC[C@@H](Nc4ccc(C#N)cn4)C1)C(C3)C2 (single isomer, unassigned) [Example 114 Isomer 1]",> 0.1,11.8
,"N#Cc1ccc(N[C@@H]2CCN(C(=O)OC3C4CC5CC3CC(C(=O)NC3CCCCC3)(C5)C4)C2)nc1 (single isomer, unassigned) [Example 117 Isomer 2]",< 0.1,63.1
< 0.1,"CC(C)(C)OC(=O)NC1CN(C(=O)NC2C3CC4CC(C3)CC2C4)C1 (stereo not shown) [Example 51, tert-butyl 1-(2-adamantylcarbamoyl)azetidin-3-ylcarbamate]",,
< 0.1,"CC(C)(C)OC(=O)N[C@@H]1CCN(C(=O)NC2C3CC4CC(C3)CC2C4)C1 (stereo partly drawn) [Example 46, (R)-tert-butyl 1-(2-adamantylcarbamoyl)pyrrolidin-3-ylcarbamate]",,
,"CC(C)COC(=O)NC1CCN(C(=O)OC2C3CC4CC2CC(C(N)=O)(C4)C3)C1 (single isomer, unassigned) [Example 18 Isomer 2, (trans-1-carbamoyl-4-adamantyl) (3R-(isobutoxycarbonylamino)pyrrolidine-1-carboxylate)]",< 0.1,95.0
,"CC(C)COC(=O)NC1CCN(C(=O)OC2C3CC4CC2CC(C(N)=O)(C4)C3)C1 (single isomer, unassigned) [Example 18 Isomer 1, (cis-1-carbamoyl-4-adamantyl) (3R-(isobutoxycarbonylamino)pyrrolidine-1-carboxylate)]",> 0.1,22.6
,"CC1(NC(=O)OC(C)(C)C)CCN(C(=O)OC2C3CC4CC2CC(C(N)=O)(C4)C3)C1 (single isomer, unassigned) [Example 22 Isomer 1, (cis-1-carbamoyl-4-adamantyl) 3-(tert-butoxycarbonylamino)-3-methylpyrrolidine-1-carboxylate]",> 0.1,15.7
,"CC(C)(C)OC(=O)N1CCC2CN(C(=O)OC3C4CC5CC3CC(C(N)=O)(C5)C4)CC21 (single isomer, unassigned) [Example 23 Isomer 2, 1-tert-butyl 5-(trans-1-carbamoyl-4-adamantyl)hexahydropyrrolo[3,4-b]pyrrole-1,5-dicarboxylate]",< 0.1,94.4
< 0.1,"CN(C(=O)OC(C)(C)C)C1CCN(C(=O)NC2C3CC4CC(C3)CC2C4)C1 (stereo not shown) [Example 55, tert-butyl 1-(2-adamantylcarbamoyl)pyrrolidin-3-yl(methyl)carbamate]",,
< 0.1,"CC(C)(C)OC(=O)N[C@H]1CCCN(C(=O)NC2C3CC4CC(C3)CC2C4)C1 (stereo partly drawn) [Example 57, (S)-tert-butyl 1-(2-adamantylcarbamoyl)piperidin-3-ylcarbamate]",,
,"CC1(NC(=O)OC(C)(C)C)CCN(C(=O)OC2C3CC4CC2CC(C(N)=O)(C4)C3)C1 (single isomer, unassigned) [Example 22 Isomer 2.2, (trans-1-carbamoyl-4-adamantyl) 3-(tert-butoxycarbonylamino)-3-methylpyrrolidine-1-carboxylate]",< 0.1,82.7
,"CC(C)(C)OC(=O)NC1(Cc2ccccc2)CCN(C(=O)OC2C3CC4CC2CC(C(N)=O)(C4)C3)C1 (single isomer, unassigned) [Example 29 Isomer 2.2, (trans-1-carbamoyl-4-adamantyl) 3-benzyl-3-(tert-butoxycarbonylamino)pyrrolidine-1-carboxylate]",< 0.1,89.3
,"CC(C)(C)OC(=O)N1CCCC12CCN(C(=O)OC1C3CC4CC1CC(C(N)=O)(C4)C3)C2 (single isomer, unassigned) [Example 30 Isomer 2, 1-tert-butyl 7-(trans-1-carbamoyl-4-adamantyl) 1,7-diazaspiro[4.4]nonane-1,7-dicarboxylate]",< 0.1,91.3
0.1 to 1,"CC(C)(C)OC(=O)N[C@H]1CCN(C(=O)NC2C3CC4CC(C3)CC2C4)C1 (stereo partly drawn) [Example 47, (S)-tert-butyl 1-(2-adamantylcarbamoyl)pyrrolidin-3-ylcarbamate]",,
,"CC(C)(C)OC(=O)NCC1CN(C(=O)OC2C3CC4CC2CC(C(N)=O)(C4)C3)C1 (single isomer, unassigned) [Example 17 Isomer 2, (trans-1-carbamoyl-4-adamantyl) 3-((tert-butoxycarbonylamino)methyl)azetidine-1-carboxylate]",< 0.1,92.8
< 0.1,"CC(C)(C)OC(=O)NCC1CN(C(=O)NC2C3CC4CC(C3)CC2C4)C1 (stereo not shown) [Example 52, tert-butyl (1-(2-adamantylcarbamoyl)azetidin-3-yl)methylcarbamate]",,
< 0.1,"CC(C)(C)OC(=O)N[C@@H]1CCCN(C(=O)NC2C3CC4CC(C3)CC2C4)C1 (stereo partly drawn) [Example 56, (R)-tert-butyl 1-(2-adamantylcarbamoyl)piperidin-3-ylcarbamate]",,
,"CC(C)(C)OC(=O)NCC1CN(C(=O)OC2C3CC4CC2CC(C(N)=O)(C4)C3)C1 (single isomer, unassigned) [Example 17 Isomer 1, (cis-1-carbamoyl-4-adamantyl) 3-((tert-butoxycarbonylamino)methyl)azetidine-1-carboxylate]",> 0.1,22.1
,"CC1(NC(=O)OC(C)(C)C)CCN(C(=O)OC2C3CC4CC2CC(C(N)=O)(C4)C3)C1 (single isomer, unassigned) [Example 22 Isomer 2.1, (trans-1-carbamoyl-4-adamantyl) 3-(tert-butoxycarbonylamino)-3-methylpyrrolidine-1-carboxylate]",< 0.1,88.5
0.1 to 1,"COC(=O)N[C@@H]1CCN(C(=O)NC2C3CC4CC(C3)CC2C4)C1 (stereo partly drawn) [Example 48, (R)-methyl 1-(2-adamantylcarbamoyl)pyrrolidin-3-ylcarbamate]",,
,"CC(C)(C)OC(=O)N1CCC2CN(C(=O)OC3C4CC5CC3CC(C(N)=O)(C5)C4)CC21 (single isomer, unassigned) [Example 23 Isomer 1, 1-tert-butyl 5-(cis-1-carbamoyl-4-adamantyl)hexahydropyrrolo[3,4-b]pyrrole-1,5-dicarboxylate]",> 0.1,35.4

Structure (SMILES),IC50 [1] [µM],IC50 [2] [µM],Biological Test Example 2 Average % inhibition at 100 nm [3] [%]
"CC(C)(C)OC(=O)N[C@@H]1CCCN(C(=O)OC2C3CC4CC(C3)CC2C4)C1 (stereo partly drawn) [Example 8, (3R)-(2-adamantyl) 3-(tert-butoxycarbonylamino)piperidine-1-carboxylate]",< 0.1,,
"CC(C)(C)OC(=O)NCC1CN(C(=O)OC2C3CC4CC(C3)CC2C4)C1 (stereo not shown) [Example 1, 2-adamantyl 3-((tert-butoxycarbonylamino)methyl)azetidine-1-carboxylate]",< 0.1,,
